The numbers were not newly measured in publication PMC10674484, “A Spectroscopic and Molecular Dynamics Study on the Aggregation Properties of a Lipopeptide Analogue of Liraglutide, a Therapeutic Peptide against Diabetes Type 2” (Molecules, 2023), which cites them from elsewhere.

Where two headings read alike, the source gives them in different places.

The text on data set [1]: Liraglutide (LG), a lipidated glucagon-like peptide 1 derivative, more than a decade ago became a once daily leading drug in the therapy of diabetes and obesity. However, despite its prominent role in the market, LG pharmacokinetics is still under scrutiny. Former studies have shown that LG complexation with human serum albumin (HSA) is one of the factors affecting LG circulation time and catabolism. Moreover, it has been shown that the relatively large size of HSA protects LG against proteolytic degradation or rapid renal filtration, resulting in a long half-life in human ...

The text on data set [2]:
(§1) From this point of view, it is interesting to compare the aggregation properties and binding affinity to serum proteins of Liraglutide, a once daily administration drug, and Semaglutide, a one weekly administration drug.
The source holds these as a separate data set.

Data set [3] has as its system albumin.
Source text: as §1

Regarding Liraglutide, the half-life in data set [1] (humans, subcutaneous administration) is 11 to 15 h. In addition, the “number of LP units per aggregate” value is listed as “twelve” in data set [1] (pH 6.4) and “eight” in data set [1] (pH 8). In addition, the “cac compared with Semaglutide” value in data set [2] is recorded as “lower than the latter”.
On to Semaglutide, for which the “affinity for albumin compared with Liraglutide” value in data set [3] is listed as “markedly higher”.

A word on the half-life: it is how long it takes for the measured level to halve.
